Measurements published in patent US20040071768A1, “Compositions and methods for treating cancer” (Inex Pharmaceuticals Corporation, priority 1999, published 2004).
Where two headings read alike, the source gives them in different places.

What was measured:
[1] = test system: LX-1 small cell lung xenografts; experiment: Single dose anti-tumor activity, LX-1 small cell lung xenograft; assay type: in vivo
Description: Female NCr nude mice were injected intravenously via the lateral tail vein on day 11 post-tumor-implantation with saline (♦), NVB at 25.5 mg/kg (◯), or NVB-TCS at 15.0 mg/kg (●) and 11.0 mg/kg (▪) at a drug-to-lipid ratio of 0.3:1 (w/w). The arrow on the x-axis denotes the day of drug administration. Data points represent mean±SEM (n=7).
Vinorelbine is used clinically in the treatment of advanced NSCLC and metastatic breast cancer.
(§1) Tumor models investigated included RXF393 (renal), MX-1 (breast), LX-1 (small cell lung cancer), PC-3 (prostate), and HT29 (colon). These models were known to be sensitive to vinorelbine. Tumor fragments were implanted subcutaneously in the flank of NCr nu/nu mice. […] Animal weights and tumor size were determined twice weekly.

HT29 colon xenografts = experiment: Multiple dose (q7dx3) anti-tumor activity, HT29 colon xenograft; conditions: HT-29; for TF (tumor free animals at the end of study): n=6
Description: (§2) Female NCr nude mice were injected intravenously (q7dx3) via the lateral tail vein on days indicated by an asterisk (*). […] Drug-to-lipid ratio was 0.3/1 (w/w). Data points represent median tumor volume (n=6).
(§3) The anti-tumor activity of multiple (q7d3) dose schedules of liposomal vinorelbine was evaluated in several human xenograft tumor models. The goal of this series of studies was to identify the benefits of encapsulation by evaluating a series of doses and determining the therapeutic index in several xenograft models. Models were selected based on the following criteria: (1) activity in the single dose studies, (2) a comprehensive literature review of vinca alkaloid efficacy, (3) a desire to include at least 2-3 models that represent the clinical use of vinorelbine, and (4) a desire to include models with a range of sensitivity to vinorelbine so that improvements resulting from the use of the liposome formulation might be identified. Based on these criteria, MX-1 and MDA-MB-435 breast models, the NCl-H460 NSCLC model and the HT-29 and DLD-1 colon models were chosen.
(§4) Therapeutic index (TI) is a parameter that quantifies the “safety factor” of a particular therapy. TI is a ratio of a toxicity parameter and a biological activity parameter. Therefore, a higher ratio represents a greater potential margin of safety. For these studies, TI is defined as follows: […]
(§5) The minimal effective dose (MED) was set according to NCl activity criteria as the dose resulting in an optimal % T/C of 40. This information was derived from Table 7.

[2] = for DRD: ICR
Description: Single and multiple (q7dx3) dose MTD studies were performed in tumor-bearing and non-tumor bearing NCr nu/nu mice, as well as healthy, outbred ICR mice.
A comparative (VRL vs. liposomal VRL) toxicity study was performed in healthy, outbred ICR mice.
Parameters evaluated throughout the study included animal weight loss, physical appearance and behavioral changes, blood analysis (CBC and serum chemistry panel), hematopoietic progenitor cell levels in femur bone marrow, and organ weights and gross pathology. Tissues were collected and stored for histology as required.

[3] = Vinorelbine tolerability, multiple dosing (q7d x 3), nude mice; assay type: in vivo, NCr nu/nu mice; conditions: Nudes
MX-1 breast xenografts = test system: MX-1 breast xenografts
Description: as §2, §3, §4, §5

RXF393 renal xenografts = experiment: Single dose anti-tumor activity, RXF393 renal xenograft; assay type: in vivo; conditions: RXF-393
Description: Male NCr nude mice were injected intravenously via the lateral tail vein on day 7 post-tumor-implantation with saline (♦), NVB at 45.0 mg/kg (◯) and 34.0 mg/kg (□), or NVB-TCS at 15.0 mg/kg (●) and 11.0 mg/kg (▪) at a drug-to-lipid ratio of 0.3:1 (w/w). The arrow on the x-axis denotes the day of drug administration. Data points represent mean±SEM (n=10). […]
as §1

With `CCC1=C[C@@H]2CN(C1)Cc1c([nH]c3ccccc13)[C@@](C(=O)OC)(c1cc3c(cc1OC)N(C)[C@H]1[C@@](O)(C(=O)OC)[C@H](OC(C)=O)[C@]4(CC)C=CCN5CC[C@]31[C@@H]54)C2` [VRL, 5′-noranhydrovinblastine] the “% T/C (optimal % T/C following final treatment)” value ([1]; single i.v. dose 25.5 mg/kg) was 23%, the “DRD (drug related deaths)” value ([1]; single i.v. dose 25.5 mg/kg) was 0/6 and the “NCI Score” value ([1]; single i.v. dose 25.5 mg/kg) was 1. For the same molecule, the “T-C (tumor growth delay to 1000 mm^3)” value ([1]; single i.v. dose 25.5 mg/kg) was 7, the “TF (tumor free animals at the end of study)” value ([1]; single i.v. dose 25.5 mg/kg) was 0/6 and the “% T/C (optimal % T/C following final treatment)” value ([1]; single i.v. dose 34 mg/kg) was “Toxic”. For the same molecule, the “DRD (drug related deaths)” value ([1]; single i.v. dose 34 mg/kg) was 7/7, the “% T/C (optimal % T/C following final treatment)” value ([1]; single i.v. dose 45 mg/kg) was “Toxic” and the “DRD (drug related deaths)” value ([1]; single i.v. dose 45 mg/kg) was 7/7. The “% T/C (optimal % T/C following final treatment)” value (HT29 colon xenografts; 5 mg/kg i.v. q7dx3) was 67%, the “DRD (drug related deaths, n = 6)” value (HT29 colon xenografts; 5 mg/kg i.v. q7dx3) was 0 and the “NCI Score” value (HT29 colon xenografts; 5 mg/kg i.v. q7dx3) was 0. For the same molecule, the “T-C (tumor growth delay to 1000 mm^3)” value (HT29 colon xenografts; 5 mg/kg i.v. q7dx3) was 1.32, the “TF (tumor free animals at the end of study)” value (HT29 colon xenografts; 5 mg/kg i.v. q7dx3) was 0 and the “% T/C (optimal % T/C following final treatment)” value (HT29 colon xenografts; 10 mg/kg i.v. q7dx3) was 5%. The “DRD (drug related deaths, n = 6)” value (HT29 colon xenografts; 10 mg/kg i.v. q7dx3) was 0, the “NCI Score” value (HT29 colon xenografts; 10 mg/kg i.v. q7dx3) was 1 and the “T-C (tumor growth delay to 1000 mm^3)” value (HT29 colon xenografts; 10 mg/kg i.v. q7dx3) was 11.9. For the same molecule, the “TF (tumor free animals at the end of study)” value (HT29 colon xenografts; 10 mg/kg i.v. q7dx3) was 0, the “% T/C (optimal % T/C following final treatment)” value (HT29 colon xenografts; 20 mg/kg i.v. q7dx3) was −65% and the “DRD (drug related deaths, n = 6)” value (HT29 colon xenografts; 20 mg/kg i.v. q7dx3) was 0. The “NCI Score” value (HT29 colon xenografts; 20 mg/kg i.v. q7dx3) was 3, the “T-C (tumor growth delay to 1000 mm^3)” value (HT29 colon xenografts; 20 mg/kg i.v. q7dx3) was 29.3 and the “TF (tumor free animals at the end of study)” value (HT29 colon xenografts; 20 mg/kg i.v. q7dx3) was 1. For the same molecule, the DRD ([2]; 5 mg/kg q7d x 3) was 0/15, the DRD ([2]; 10 mg/kg q7d x 3) was 0/15 and the DRD ([2]; 20 mg/kg q7d x 3) was 0/15. The DRD ([2]; 25 mg/kg q7d x 3) was 1/15, the Granulocytopenia ([2]; mouse, in vivo) was “significant” and the neutrophil population ([2]; mouse, in vivo) was “almost completely abolished”. The spleen weights ([2]; mouse, in vivo) was “Decreased spleen weights”, the “Max % Wt Loss” value ([2]; mouse, in vivo, 5 mg/kg) was “+” and the “Max % Wt Loss” value ([2]; mouse, in vivo, 10 mg/kg) was −3%. The “Max % Wt Loss” value ([2]; mouse, in vivo, 20 mg/kg) was −3%, the “Max % Wt Loss” value ([2]; mouse, in vivo, 25 mg/kg) was −5% and the DRD ([3]; 5 mg/kg q7d x 3) was 0/30. The DRD ([3]; 10 mg/kg q7d x 3) was 0/37, the DRD ([3]; 20 mg/kg q7d x 3) was 2/37 and the DRD ([3]; 25 mg/kg q7d x 3) was 0/7. The DRD ([3]; 30 mg/kg q7d x 3) was 6/18, the “% T/C (optimal % T/C following final treatment)” value (MX-1 breast xenografts; 5 mg/kg i.v. q7dx3) was 100% and the “DRD (drug related deaths, n = 6)” value (MX-1 breast xenografts; 5 mg/kg i.v. q7dx3) was 0. The “NCI Score” value (MX-1 breast xenografts; 5 mg/kg i.v. q7dx3) was 0, the “T-C (tumor growth delay to 1000 mm^3)” value (MX-1 breast xenografts; 5 mg/kg i.v. q7dx3) was 0 and the “TF (tumor free animals at the end of study)” value (MX-1 breast xenografts; 5 mg/kg i.v. q7dx3, n=6) was 0. For the same molecule, the “% T/C (optimal % T/C following final treatment)” value (MX-1 breast xenografts; 10 mg/kg i.v. q7dx3) was 38%, the “DRD (drug related deaths, n = 6)” value (MX-1 breast xenografts; 10 mg/kg i.v. q7dx3) was 0 and the “NCI Score” value (MX-1 breast xenografts; 10 mg/kg i.v. q7dx3) was 1. For the same molecule, the “T-C (tumor growth delay to 1000 mm^3)” value (MX-1 breast xenografts; 10 mg/kg i.v. q7dx3) was 7.3, the “TF (tumor free animals at the end of study)” value (MX-1 breast xenografts; 10 mg/kg i.v. q7dx3, n=6) was 0 and the “% T/C (optimal % T/C following final treatment)” value (MX-1 breast xenografts; 20 mg/kg i.v. q7dx3) was −28%. The “DRD (drug related deaths, n = 6)” value (MX-1 breast xenografts; 20 mg/kg i.v. q7dx3) was 0, the “NCI Score” value (MX-1 breast xenografts; 20 mg/kg i.v. q7dx3) was 3 and the “T-C (tumor growth delay to 1000 mm^3)” value (MX-1 breast xenografts; 20 mg/kg i.v. q7dx3) was 28.5. The “TF (tumor free animals at the end of study)” value (MX-1 breast xenografts; 20 mg/kg i.v. q7dx3, n=6) was 0, the “% T/C (optimal % T/C following final treatment)” value (RXF393 renal xenografts; single i.v. dose 34 mg/kg) was −6% and the “DRD (drug related deaths)” value (RXF393 renal xenografts; single i.v. dose 34 mg/kg) was 2/10. The “MWL (maximum mean weight loss per treatment group)” value (RXF393 renal xenografts; single i.v. dose 34 mg/kg) was −23.1, the “NCI Score” value (RXF393 renal xenografts; single i.v. dose 34 mg/kg) was 2 and the “T-C (tumor growth delay to 1000 mm^3)” value (RXF393 renal xenografts; single i.v. dose 34 mg/kg) was 22. For the same molecule, the “TF (tumor free animals at the end of study)” value (RXF393 renal xenografts; single i.v. dose 34 mg/kg) was 2/8, the “% T/C (optimal % T/C following final treatment)” value (RXF393 renal xenografts; single i.v. dose 45 mg/kg) was “Toxic” and the “DRD (drug related deaths)” value (RXF393 renal xenografts; single i.v. dose 45 mg/kg) was 9/10. The “MWL (maximum mean weight loss per treatment group)” value (RXF393 renal xenografts; single i.v. dose 45 mg/kg) was −24.6 and the “TF (tumor free animals at the end of study)” value (RXF393 renal xenografts; single i.v. dose 45 mg/kg) was 0/1.
